Data from article PMC3804129 (Journal of medicinal chemistry, 2013).

Molecular target: T1, human VAChT (Homo sapiens, UniProt Q16572)
T1 sequence (Q16572 1-532): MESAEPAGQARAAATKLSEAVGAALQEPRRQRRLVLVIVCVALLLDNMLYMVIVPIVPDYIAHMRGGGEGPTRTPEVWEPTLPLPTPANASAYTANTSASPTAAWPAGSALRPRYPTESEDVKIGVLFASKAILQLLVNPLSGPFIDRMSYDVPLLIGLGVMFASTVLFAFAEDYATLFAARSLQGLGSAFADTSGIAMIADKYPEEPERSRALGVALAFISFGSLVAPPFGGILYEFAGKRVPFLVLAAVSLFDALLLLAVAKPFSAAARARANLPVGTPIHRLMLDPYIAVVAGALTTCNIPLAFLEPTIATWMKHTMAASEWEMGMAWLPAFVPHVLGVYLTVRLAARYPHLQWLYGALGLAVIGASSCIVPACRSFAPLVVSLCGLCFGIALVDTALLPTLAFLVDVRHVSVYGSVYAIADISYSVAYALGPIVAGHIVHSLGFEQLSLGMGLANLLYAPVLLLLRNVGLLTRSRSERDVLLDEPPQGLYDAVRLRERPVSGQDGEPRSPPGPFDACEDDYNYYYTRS
Assay: VAChT binding assay, displacement of
Conditions: for decrease in affinity for VAChT compared to 9: relative to compound 9; for selectivity for VAChT over σ receptors (σ1 and σ2): versus either sigma receptor type; for decrease in affinity for VAChT compared to 19e: relative to compound 19e; for VAChT selectivity Kiσ1/Ki VAChT: Ki for σ1 divided by Ki for VAChT

Cn1cccc1C(=O)C1CCN(C2Cc3ccccc3CC2O)CC1 (racemic) [Compound 19a, (1-(3-Hydroxy-1,2,3,4-tetrahydronaphthalen-2-yl)piperidin-4-yl)(1-methyl-1H-pyrrol-2-yl)methanone]
decrease in affinity for VAChT compared to 9: 4-5 fold
selectivity for VAChT over σ receptors (σ1 and σ2): > 70 fold

Cn1ccc(C(=O)C2CCN(C3Cc4ccccc4CC3O)CC2)c1 (racemic) [Compound 19b, (1-(3-Hydroxy-1,2,3,4-tetrahydronaphthalen-2-yl)piperidin-4-yl)(1-methyl-1H-pyrrol-3-yl)methanone]
decrease in affinity for VAChT compared to 9: 4-5 fold

O=C(c1cccnc1)C1CCN(C2Cc3ccccc3CC2O)CC1 (racemic) [Compound 19c, (1-(3-Hydroxy-1,2,3,4-tetrahydronaphthalen-2-yl)piperidin-4-yl)(pyridin-3-yl)methanone]
lower affinity for VAChT compared to benzoyl counterpart 5 (relative to compound 5): 5 fold

COc1cccnc1C(=O)C1CCN(C2Cc3ccccc3CC2O)CC1 (racemic) [Compound 19f, (1-(3-Hydroxy-1,2,3,4-tetrahydronaphthalen-2-yl)piperidin-4-yl)(3-methoxypyridin-2-yl)methanone]
decrease in affinity for VAChT compared to 19e: 15 fold

O=C(c1cncc(F)c1)C1CCN(C2Cc3ccccc3CC2O)CC1 (racemic) [Compound 19g, (5-Fluoropyridin-3-yl)(1-(3-hydroxy-1,2,3,4-tetrahydronaphthalen-2-yl)piperidin-4-yl)methanone]
selectivity for VAChT over σ receptors (σ1 and σ2): > 70 fold

O=C(c1cccnc1F)C1CCN(C2Cc3ccccc3CC2O)CC1 (racemic) [Compound 19k, (2-Fluoropyridin-3-yl)(1-(3-hydroxy-1,2,3,4-tetrahydronaphthalen-2-yl)piperidin-4-yl)methanone]
VAChT selectivity Kiσ1/Ki VAChT: 100

CNc1ccc(C(=O)C2CCN(C3Cc4ccccc4CC3O)CC2)cc1 (racemic) [Compound 24b, (1-(3-Hydroxy-1,2,3,4-tetrahydronaphthalen-2-yl)piperidin-4-yl)(4-(methylamino)phenyl) methanone]
VAChT selectivity Kiσ1/Ki VAChT: 100

O=C(c1ccc(OCCF)nc1)C1CCN(C2Cc3ccccc3CC2O)CC1 (racemic) [Compound 26a, (6-(2-Fluoroethoxy)pyridin-3-yl)(1-(3-hydroxy-1,2,3,4-tetrahydronaphthalen-2-yl)-piperidin-4-yl)methanone]
decrease in affinity for VAChT compared to 19e: 4.5 fold

Cn1cccc1C(=O)C1CCN(C2Cc3c(N)cccc3CC2O)CC1 (racemic) [Compound 30a, (1-(8-Amino-3-hydroxy-1,2,3,4-tetrahydronaphthalen-2-yl)piperidin-4-yl)(1-methyl-1Hpyrrol-2-yl)methanone]
higher VAChT binding affinity than 31a (relative to compound 31a): 60 fold
